Read-outs that look alike come from different tables or passages of the source.
Experiments:
[1] = Isoelectric point (PI) measurement; assay type: physicochemical
[2] = system: U-118 MG human brain astrocytoma/glioblastoma cell line; assay: Cell uptake and inhibition assay, U-118 MG; assay type: cell-based; conditions: for cell uptake over incubation time (in words): all groups, 15-120 minutes; for cell uptake, comparison of non-inhibition, FAP single, integrin αvβ3 single and dual inhibition groups (in words): at 30 minutes, FAPI-04 and RGD as inhibitors
Experimental: (§1) The cell lines involved in the cell experiments in the test examples include: SUM149PT human breast cancer cell line, HUTU-80 human duodenal adenocarcinoma cell line, and U-118 MG human brain astrocytoma/glioblastoma cell line.
(§2) U-118 MG: Complete medium was formulated using DMEM high-glucose medium, 10% FBS, and a penicillin-streptomycin solution. The cells were cultured in a constant temperature incubator at 37° C. with 5% CO2. The culture medium was regularly replaced, and the cells were passaged. The culture medium was generally changed every 2 to 3 days. The growth of the tumor cells was observed daily under a microscope, including monitoring cell growth status, checking for adherence, examining cell morphology for any abnormalities, checking for contamination, and observing medium color for any abnormalities. Cells were passaged when they reached 80-90% confluence.
(§3) When cell confluence in the culture flask reached 80%, the cells were digested and centrifuged, and the supernatant was removed. An appropriate amount of medium was added to dilute so that each well contained 500 μL of medium for plating. After thorough mixing by pipetting, the cell suspension was seeded into a 24-well plate at a density of 5×10^5 cells per well. The plate was then placed into the incubator for continued growth. The cells were ready for cellular experiments when they reached 80% confluence.
(§4) (1) The cell uptake assay established four incubation time points: 15, 30, 60, and 120 minutes, respectively. For each time point, four groups were set up: non-inhibition group, a first single inhibition group (FAP single inhibition), a second single inhibition group (CXCR4/GRPR/αvβ3 single inhibition), and a dual inhibition group (FAP inhibitor+CXCR4/GRPR/αvβ3 inhibitor). Each group at each time point was set up with 3 triplicate wells.
(§5) (2) Cells were plated into a 24-well plate according to the cell plating procedure described above.
(§6) (3) The original culture medium was removed from the 24-well plate. Then, 400 μL of 100 mg/mL skimmed milk solution was added to each well for blocking for one hour. After removing the skimmed milk solution, each of the wells was washed three times by adding 400 μL of PBS solution. Subsequently, 146 μL of FBS-free medium was added to each well. Next, the non-inhibition group received 4 μL of cold PBS per well, while the first single inhibition group, the second single inhibition group, and the dual inhibition group received the following additions per well according to Table 3: 2 μL of non-radiolabeled first single inhibitor solution and 2 μL of cold PBS: 2 μL of non-radiolabeled second single inhibitor solution and 2 μL of cold PBS; 2 μL of non-radiolabeled first single inhibitor solution (10 mM) and 2 μL of non-radiolabeled second single inhibitor solution (10 mM). The plate was incubated at room temperature for one hour.
(§7) (4) The ^68Ga- and ^177Lu-labeled radioactive ligands were formulated by adding FBS-free medium to achieve a radioligand system concentration of 20 nM. Then, 50 μL of this radioligand system was added to each well. Each group was incubated according to the designated time points: 15, 30, 60, and 120 minutes.
(5) After the incubation was complete, the supernatant was removed, and the wells were washed three times with 400 μL of PBS solution. Then, 200 μL of 1 M NaOH solution was added to each well for cell lysis. […]
(6) The radioactivity in the cells was measured using a γ counter. […]

[3] = system: U-118 MG human brain astrocytoma/glioblastoma cell line; assay: Cell saturation binding assay, U-118 MG; conditions: 68Ga-labeled compound
Experimental: (§8) (1) For the cell saturation binding assay, a total of 8 radiolabeled ligand concentrations were set at intervals within the anticipated range. For each concentration, there were 3 groups: the non-inhibition group, the first single inhibition group (FAP single inhibition group), and the second single inhibition group (CXCR4/GRPR/αvβ3 single inhibition group). For each concentration and each group, 3 replicate wells were established.
as §5
(§9) (3) The original culture medium was removed from the 24-well plate. Then, 400 μL of 100 mg/mL skimmed milk solution was added to each well for blocking for one hour. After removing the skimmed milk solution, each of wells was washed three times by adding 400 μL of PBS solution. Subsequently, 146 μL of FBS-free medium was added to each well. Next, the non-inhibition group received 4 μL of cold PBS per well, while the first single inhibition group and the second single inhibition group received the following additions per well according to Table 4: 2 μL of non-radiolabeled first single inhibitor solution and 2 μL of cold PBS; 2 μL of non-radiolabeled second single inhibitor solution and 2 μL of cold PBS. The plate was then incubated at room temperature for one hour.
(§10) (4) The ligands were radiolabeled with 68Ga using the labeling method described previously. Different volumes of FBS-free medium were added to formulate the radioligand systems at corresponding concentrations. Then, 50 μL of the corresponding concentration of the radioligand system was added to each well.
(§11) (5) The supernatant was removed, and the wells were washed three times with 400 μL of PBS. 200 μL of IM NaOH solution was added to each well for cell lysis. […] Each well was washed once with 400 μL of PBS solution, and the washings were sequentially added to the corresponding radioimmunoassay tubes.
(§12) (6) Radioactivity in the cells was measured using a γ counter. The equilibrium dissociation constant (KD) was obtained by fitting the curve using nonlinear regression analysis in GraphPad Prism software. KD is the drug concentration that causes half of the maximum effect (50% receptor occupancy).

[4] = system: SUM149PT human breast cancer cell line; assay: Cell uptake and inhibition assay, SUM149PT; assay type: cell-based; conditions: for cell uptake, comparison of non-inhibition, FAP single, CXCR4 single and dual inhibition groups (in words): FAPI-04 and T140 as inhibitors; for cell uptake over incubation time (in words): non-inhibition group, 15-120 minutes
Experimental: as §1
as §2, with “SUM149PT:” for “U-118 MG:”
as §3, §4, §5, §6, §7
(5) After the incubation was complete, the supernatant was removed, and the wells were washed three times with 400 μL of PBS solution. Then, 200 μL of 1 M NaOH solution was added to each well for cell lysis. […] Each well was then washed once with 400 μL of PBS solution, and this wash solution was also added to the corresponding radioimmunoassay tubes.
(6) The radioactivity in the cells was measured using a γ counter. A bar graph was plotted using GraphPad Prism software. The inhibition rate for each inhibition group was calculated as follows: Inhibition Rate (%)=(1−[Radioactive Count of the Inhibition Group]/[Radioactive Count of the Non-inhibition Group])×100%. […]

[5] = system: SUM149PT human breast cancer cell line; assay: Cell saturation binding assay, SUM149PT; conditions: 68Ga-labeled compound
Experimental: as §8, §5, §9, §10, §11, §12

[6] = conclusion from inhibition groups
[7] = FAPI-04 solution, read-out: KD value, First single inhibition group (FAP single inhibition)
[8] = RGD solution (integrin αvβ3 inhibitor), read-out: KD value, Second single inhibition group (CXCR4/GRPR/αvβ3 single inhibition)
[9] = read-out: KD value, Non-inhibition group
[10] = T140 solution (CXCR4 inhibitor), read-out: KD value, Second single inhibition group (CXCR4/GRPR/αvβ3 single inhibition)

CCCCCC(=O)N[C@H]1CSCc2cc(CSCCNC(=O)[C@H](CCCCNC(=O)CCN3C(=O)CC(SCC(=O)NCCOCCOCCOCCOCCC(=O)NCCCC[C@@H]4NC(=O)[C@@H](Cc5ccc(O)cc5)NC(=O)[C@H](CC(=O)O)NC(=O)CNC(=O)[C@H](CCCNC(=N)N)NC4=O)C3=O)NC(=O)CCC(C(=O)O)N3CCN(CC(=O)O)CCN(CC(=O)O)CCN(CC(=O)O)CC3)cc(c2)CSC[C@@H](C(=O)O)NC(=O)[C@H](Cc2ccccc2)NC(=O)[C@H](CCC(N)=O)NC(=O)C([C@@H](C)O)NC(=O)[C@@H]2CCCN2C(=O)[C@@H]2CCCN2C1=O (stereo partly shown) [SDYD08]
Main peak's PI ([1]; unlabeled compound): 2.916
cell uptake over incubation time (in words) [2]: increased significantly within the first 15 minutes
cell uptake, comparison of non-inhibition, FAP single, integrin αvβ3 single and dual inhibition groups (in words) [2]: from high to low, were as follows: non-inhibition group, FAP single inhibition group, integrin αvβ3 single inhibition group, and dual inhibition group
specific binding to fibroblast activation protein and integrin αvβ3 (in words) [2, 6]: can specifically bind to fibroblast activation protein and integrin αvβ3
KD values / binding affinity to the receptors (in words) [3]: relatively low KD values
Kd [3, 7]: 7.12 ± 0.558 nM
Kd [3, 8]: 10.5 ± 1.06 nM
Kd [3, 9]: 8.43 ± 0.475 nM

CCCCCC(=O)N[C@@H]1CSCc2cc(CSCCNC(=O)COCCOCCNC(=O)COCCOCCNC(=O)CSC3CC(=O)N(CCC(=O)N[C@H](CCCCNC(=O)CN4CCN(CC(=O)O)CCN(CC(=O)O)CCN(CC(=O)O)CC4)C(=O)NCc4ccc(C(=O)NCCC[C@@H]5C(=O)N[C@@H](CCCNC(=N)N)C(=O)N[C@@H](Cc6ccc7ccccc7c6)C(=O)NCC(=O)N[C@H](Cc6ccc(O)cc6)C(=O)N5C)cc4)C3=O)cc(c2)CSC[C@@H](C(=O)O)NC(=O)[C@H](Cc2ccccc2)NC(=O)[C@H](CCC(N)=O)NC(=O)C([C@@H](C)O)NC(=O)[C@@H]2CCCN2C(=O)[C@@H]2CCCN2C1=O (stereo partly shown) [SDYD06]
behaviour of sample prepared in pure water during isoelectric point measurement ([1]; pure water): insoluble substance formed
cell uptake, comparison of non-inhibition, FAP single, CXCR4 single and dual inhibition groups (in words) [4]: from high to low, were as follows: non-inhibition group, FAP single inhibition group, CXCR4 single inhibition group, and dual inhibition group
cell uptake over incubation time (in words) [4]: slowly increased and reached a plateau from 15 to 120 minutes
KD values / binding affinity to the receptors (in words) [5]: relatively low KD values
Kd [5, 7]: 0.455 ± 0.056 nM
Kd [5, 10]: 0.173 ± 0.012 nM
Kd [5, 9]: 1.41 ± 0.213 nM

CN1C(=O)[C@@H](Cc2ccc(O)cc2)NC(=O)CNC(=O)[C@H](Cc2ccc3ccccc3c2)NC(=O)[C@H](CCCNC(=N)N)NC(=O)[C@H]1CCCNC(=O)c1ccc(CNC(=O)[C@H](CCCCNC(=O)CN2CCN(CC(=O)O)CCN(CC(=O)O)CCN(CC(=O)O)CC2)NC(=O)CCC(=O)NCCOCCOCC(=O)NCCOCCOCC(=O)N2CCN(CCCOc3ccc4nccc(C(=O)NCC(=O)N5CC(F)(F)C[C@H]5C#N)c4c3)CC2)cc1 [SDYD05, DOTA-FAPI-Pentixafor]
PI range of series of peaks ([1]; unlabeled compound): 6.617-7.126
cell uptake, comparison of non-inhibition, FAP single, CXCR4 single and dual inhibition groups (in words) [4]: non-inhibition group exhibited the highest cell uptake, followed by the FAP single inhibition group, while the dual inhibition group showed the lowest uptake rate
specific binding to CXCR4 protein (in words) [4, 6]: can rapidly and efficiently bind specifically to the CXCR4 protein
specific binding to fibroblast activation protein (in words) [4, 6]: bind specifically to fibroblast activation protein to a certain extent
cell uptake over incubation time (in words) [4]: slowly increased and reached a plateau from 15 to 120 minutes
KD values / binding affinity to the receptors (in words) [5]: relatively low KD values
Kd [5, 7]: 0.373 ± 0.035 nM
Kd [5, 10]: 1.99 ± 0.312 nM
Kd [5, 9]: 0.217 ± 0.018 nM

N#C[C@@H]1CC(F)(F)CN1C(=O)CNC(=O)c1ccnc2ccc(OCCCN3CCN(C(=O)[C@H](CCCCNC(=O)CCN4C(=O)CC(SCC(=O)NCCOCCOCCOCCOCCC(=O)NCCCC[C@@H]5NC(=O)[C@@H](Cc6ccc(O)cc6)NC(=O)[C@H](CC(=O)O)NC(=O)CNC(=O)[C@H](CCCNC(=N)N)NC5=O)C4=O)NC(=O)CCC(C(=O)O)N4CCN(CC(=O)O)CCN(CC(=O)O)CCN(CC(=O)O)CC4)CC3)cc12 (stereo partly shown) [SDYD07]
Main peak's PI ([1]; unlabeled compound): 4.809
cell uptake over incubation time (in words) [2]: increased significantly within the first 15 minutes, and then slowly increased
cell uptake, comparison of non-inhibition, FAP single, integrin αvβ3 single and dual inhibition groups (in words) [2]: from high to low, were as follows: non-inhibition group, FAP single inhibition group, integrin αvβ3 single inhibition group, and dual inhibition group
KD values / binding affinity to the receptors (in words) [3]: relatively low KD values
Kd [3, 7]: 7.1 ± 1.06 nM
Kd [3, 8]: 7.62 ± 0.923 nM
Kd [3, 9]: 10.5 ± 1.87 nM
